Patent publication US7098219B2, “Inhibitors of cellular efflux pumps of microbes” (Wockhart Limited, priority 2000, dated 2006)

tested on: Staphylococcus aureus 1199 B NorA+; format: cell-based; conditions: combination with ciprofloxacin, broth microdilution checkerboard, 35° C. 20 hours; FIC index ≦0.5 synergistic, 0.5–2.0 additive, >2.0 antagonistic
Description: Testing method for inhibition of the efflux pump of Staphylococcus aureus 1199B NorA^+
[…]. Victor Lorian, Md., Fourth edition 1996, pp 333–338).
In short, the assay involves broth microdilution method performed as recommended by the National Committee for Clinical Laboratory Standards (NCCLS) 1997 (Methods for Dilution of Antimicrobial Susceptibility Tests for Bacteria that Grow Aerobically, Fourth edition; Approved Standard, NCCLS document M7-A4, vol. 17, No. 2). The test organism used for the assay is Staphylococcus aureus 1199 B NorA^+.
[…]. Stock solutions of the efflux pump inhibitors tested are prepared in dimethyl sulfoxide (DMSO) at a final concentration of 5 mg/ml. Stock solutions are further diluted in Mueller Hinton Broth as per the need of the assay. Ciprofloxacin is dissolved in water.
The checkerboard assay is performed in microtiter plates. […] The efflux pump inhibitor is diluted in the Y-axis, each row containing an equal concentration of efflux pump inhibitor. The result of these manipulations is that each well of the microtiter plate contains a unique combination of concentrations of the two agents. Bacterial inoculum is added at 5×10^5 CFU/ml. Microtiter plates are incubated at 35° C. for 20 hours. Reading is done by visibly noting turbidity and confirmed using a microtiter plate reader (Molecular Devices). The FIC index is calculated as
(A) is the concentration of the experimental efflux pump inhibitor in the well that is the lowest inhibitory concentration in the Y-axis. (MICA) is the MIC of Staphylococcus aureus to experimental efflux pump inhibitor alone. FICA is the fractional inhibitory concentration of an experimental efflux pump inhibitor. […] (Antimicrobial Combination In Antibiotics in Laboratory Medicine, Ed. Victor Lorian, Md., Fourth edition 1996, pp 333–338).

Compound	FIC INDEX
CCn1cc(C(=O)O)c(=O)c2c(N)c(F)c(N3CC(N)CC3C)c(F)c21 (stereo not shown) [5 (NorA), 5-Amino-1-ethyl-6,8-difluoro-1,4-dihydro-7-(3′-amino-5′-methylpyrrolidin-1-yl)-4-oxo-quinoline-3-carboxylic acid]	0.378
CC1COCC(C)N1c1c(F)c(N)c2c(=O)c(C(=O)O)cn(-c3ccccc3C(F)(F)F)c2c1F (stereo not shown) [Example 41 (NorA), 5-Amino-1-(2′-trifluoromethylphenyl)-6,8-difluoro-1,4-dihydro-7-(3′,5′-dimethylmorpholin-1-yl)-4-oxo-quinoline-3-carboxylic acid]	0.384
N-3-azabycyclo{7-(1-(2,4-difluorophenyl)-6-fluoro-1,4-dihydro-4-oxo-1,8-naphthyridine-3-carboxylic acid)}-[1∝,5∝,6∝]-N-6-amino-{7-1-(2,4-difluorophenyl)-6-fluoro-1,4-dihydro-4-oxo-1,8-naphthyridine-3-carboxylic acid)}-3.1.0]hexane [Bis compound 9]	0.314
CC(=O)NC1CC(C)N(c2cc3c(cc2F)c(=O)c(C(=O)O)cn3C2CC2)C1 (stereo not shown) [9 (NorA), 1-Cyclopropyl-6-fluoro-1,4-dihydro-7-(3′-acetamido-5′-methylpyrrolidin-1-yl)-4-oxo-quinoline-3-carboxylic acid]	0.314
CCn1cc(C(=O)O)c(=O)c2cc(F)c(N3CCc4ccccc4C3)cc21 [1 (NorA), 1-Ethyl-6-fluoro-1,4-dihydro-7-(1′,2′,3′,4′-tetrahydroisoquinolin-2-yl)-4-oxo-quinoline-3-carboxylic acid]	0.314
COc1c(N2CC(C)C(O)C(C)C2)c(F)cc2c(=O)c(C(=O)O)cn(C3CC3)c12 (stereo not shown) [Example 22 (NorA), 1-Cyclopropyl-6-fluoro-8-methoxy-1,4-dihydro-7-(4′-hydroxy-3′,5′-dimethylpiperidin-1-yl)-4-oxo-quinoline-3-carboxylic acid]	0.370
CN1CCN(c2cc3c(cc2F)c(=O)c(C(=O)O)cn3-c2ccccc2C(F)(F)F)CC1(C)C [Example 39 (NorA), 1-(2′-Trifluoromethylphenyl)-6-fluoro-1,4-dihydro- -7-(3′,3′,4′-trimethylpiperazin-1-yl)-4-oxo-quinoline-3-carboxylic acid]	0.282
CCOC(=O)c1cn(-c2ccc(F)cc2F)c2nc(NC3C4CN(Cc5ccccc5)CC43)c(F)cc2c1=O (stereo not shown) [Example 51 (NorA), Ethyl-1-(2′,4′-difluorophenyl)-6-fluoro-1,4-dihydro-7-{[1∝,5∝,6∝]-3-N-benzyl-3-azabicyclo[3.1.01]hex-6-yl-amino}-4-oxo-1,8-naphthyridine-3-carboxylate]	0.185
COc1c(N2CCC(O)C(CC(C)C)C2)c(F)cc2c(=O)c(C(=O)O)cn(C3CC3)c12 (stereo not shown) [Example 20 (NorA), 1-Cyclopropyl-6-fluoro-8-methoxy-1,4-dihydro-7-(4′-hydroxy-3′-isobutylpiperidin-1-yl)-4-oxo-quinoline-3-carboxylic acid]	0.248
Nc1c(F)c(N2CCN(c3nc4c(cc3F)c(=O)c(C(=O)O)cn4C3CC3)CC2)c(F)c2c1c(=O)c(C(=O)O)cn2C1CC1 [Bis compound 4, N-1-{7-(1-cyclopropyl-6-fluoro-1,4-dihydro-4-oxo-1,8-naphthyridine-3-carboxylic acid)}-N-4-{7-(1-cyclopropyl-6,8-difluoro-5-amino-1,4-dihydro-4-oxo-quinoline-3-carboxylic acid)}-piperazine]	0.282
CC1CC(N)CN1c1cc2c(cc1F)c(=O)c(C(=O)O)cn2C1CC1 (stereo not shown) [Example 10 (NorA), 1-Cyclopropyl-6-fluoro-1,4-dihydro-7-(3′-amino-5′-methylpyrrolidin-1-yl)-4-oxo-quinoline-3-carboxylic acid]	0.314
CCC(=O)OC1CCN(c2c(F)c(N)c3c(=O)c(C(=O)O)cn(C4CC4)c3c2F)CC1 [Example 30 (NorA), 5-Amino-1-cyclopropyl-6,8-difluoro-1,4-dihydro-7-(4′-propionoxypiperidin-1-yl)-4-oxo-quinoline-3-carboxylic acid]	0.314
CC1CC(O)CN1c1c(F)c(N)c2c(=O)c(C(=O)O)cn(-c3ccc(F)cc3F)c2c1F (stereo not shown) [Example 46 (NorA), 5-Amino-1-(2′,4′-difluorophenyl)-6,8-difluoro-1,4-dihydro-7-(3′-hydroxy-5′-methylpyrrolidin-1-yl)-4-oxo-quinoline-3-carboxylic acid]	0.314
COc1c(N2CC(C)C(N)C(C)C2)c(F)c(N)c2c(=O)c(C(=O)O)cn(C3CC3)c12 (stereo not drawn) [Example 24 (NorA), 5-Amino-1-cyclopropyl-6-fluoro-8-methoxy-1,4-dihydro-7-(cis-4′-amino-3′,5′-dimethylpiperidin-1-yl)-4-oxo-quinoline-3-carboxylic acid]	0.314
Cc1c(F)c(N2CCC(Nc3c(F)c(N)c4c(=O)c(C(=O)O)cn(C5CC5)c4c3F)CC2)cc2c1c(=O)c(C(=O)O)cn2C1CC1 [Bis compound 6, N-1-{7-(1-cyclopropyl-6-fluoro-5-methyl-1,4-dihydro-4-oxo-quinolone-3-carboxylic acid)}-N-4-amino{7-(1-cyclopropyl-6,8-difluoro-5-amino-1,4-dihydro-4-oxo-quinoline-3-carboxylic acid)}-piperidine]	0.304
CCOC(=O)COC(=O)c1cn2c3c(c(N4CCC(O)CC4)c(F)cc3c1=O)CC[C@H]2C [Example 57 (NorA), Ethoxy carbonylmethyl (R)-(+)-9-fluoro-6,7-dihydro-8-(4′-hydroxypiperidin-1-yl)-5-methyl-1-oxo-1H,5H-benzo[i,j]quinolizine-2-carboyxlate]	0.400
Nc1c(F)c(NC2CCN(c3nc4c(cc3F)c(=O)c(C(=O)O)cn4C3CC3)C2)c(F)c2c1c(=O)c(C(=O)O)cn2C1CC1 (stereo not shown) [Bis compound 3]	0.314
CCn1cc(C(=O)O)c(=O)c2c(N)c(F)c(N3CCC(NC(C)=O)CC3)c(F)c21 [Example 7 (NorA), 5-Amino-1-ethyl-6,8-difluoro-1,4-dihydro-7-{4′-(acetamido)piperidin-1-yl}-4-oxo-quinoline-3-carboxylic acid]	0.312
(S)-(−)-9-Fluoro-6,7-dihydro-8-(4′-hydroxypiperidin-1-yl)-5-methyl-1-oxo-1H,5H-benzo[i,j]quinolizine-2-carboxylic acid L-aryinine salt [Example 54 (NorA)]	0.314
C[C@H]1CCc2c(N3CCC(C(N)=O)CC3)c(F)cc3c(=O)c(C(=O)O)cn1c23 [Example 53 (NorA), (S)-(−)-9-Fluoro-6,7-dihydro-8-(4′-carboxamidopineridin-1-yl)-5-methyl-1-oxo-1H,5H-benzo[i,j]quinolizine-2-carboxylic acid]	0.192
CCn1cc(C(=O)O)c(=O)c2c(N)c(F)c(N3CCC(N)CC3)c(F)c21 [Example 6 (NorA), 5-Amino-1-ethyl-6,8-difluoro-1,4-dihydro-7-(4′-aminopiperidin-1-yl)-4-oxo-quinoline-3-carboxylic acid]	0.314
O=C(O)c1cn(-c2ccc(F)cc2F)c2nc(N3CCN(c4cc5c(cc4F)c(=O)c(C(=O)O)cn5C4CC4)CC3)c(F)cc2c1=O [Bis compound 8, N-1-{7-(1-(2,4-difluorophenyl)-6-fluoro-1,4-dihydro-4-oxo-1,8-naphthyridine-3-carboxylic acid)}-N-4-{7-(1-cyclopropyl-6-fluoro-1,4-dihydro-4-oxo-quinoline-3-carboxylic acid)}-piperazine]	0.192
Nc1c(F)c(N2CCC(N)C2)c(F)c2c1c(=O)c(C(=O)O)cn2-c1ccc(C(F)(F)F)cc1 (stereo not shown) [Example 43 (NorA), 5-Amino-1-(4′-trifluoromethylphenyl)-6,8-difluoro-1,4-dihydro-7-(3′-aminopyrrolidin-1-yl)-4-oxo-quinoline-3-carboxylic acid]	0.564
CC1CN(c2c(F)c(N)c3c(=O)c(C(=O)O)cn(-c4ccccc4C(F)(F)F)c3c2F)CC(C)N1 (stereo not shown) [Example 42 (NorA), 5-Amino-1-(2′-trifluoromethylphenyl)-6,8-difluoro-1,4-dihydro-7-(3′,5′-dimethylpiperizine-1-yl)-4-oxo-quinoline-3-carboxylic acid]	0.314
CCOC(=O)c1cc(F)c(NC2CCN(c3c(F)c(N)c4c(=O)c(C(=O)O)cn(C5CC5)c4c3F)CC2)c(F)c1F [Bis compound 10, N-1-{7-(1-cyclopropyl-6,8-difluoro-5-amino-1,4-dihydro-4-oxo-quinolone-3-carboxylic acid)}-N-4-amino-{ethyl 2,3,6-trifluorophenyl-4-carboxylate}-piperidine]	0.304
